Experimental data: patent publication US20250326738A1, “MALT1 Modulators and Uses Thereof” (Rarefied Biosciences, Inc., priority 2022, published 2025)

Columns and labels:
Jurkat IL-2 = Jurkat IL-2 assay (IL-2 inhibition by ELISA after anti-CD3/28/2 stimulation); type: cell-based; settings: Jurkat clone E6.1, IL-2 in supernatant, 30 min pre-incubation, anti-CD3/28/2 stimulation 24 hours; mean if tested more than once
Description: Inhibition was determined in a cell-based assay using Jurkat (ATCC, clone E6.1), an immortalized T-cell line, exposed to a dose response of compound and assessed for viability, and IL-2 inhibition by ELISA. Cells were cultured in RPMI/10% FBS (Invitrogen 11875093, Atlanta Biologicals S12450H), maintained below 3E6/mL and only used in assays while below passage 25. Compounds were stamped by ECHO onto 384w plates (PerkinElmer Culturplate, 6007680). The cells were plated in fresh media on top of compound and incubated for 30 minutes before stimulation with soluble anti-CD3/28/2 (Stemcell, 10970) for 24 hours. Supernatant was collected and assessed for IL-2 (MSD, 384w, L21SA-1). To assess viability of cells treated with compound, cells were lysed with CTG reagent (Promega, G7570), and measured by luminometer. […] IC50s calculated using 4-parameter fit in GraphPad Prism.
“N/A” indicates not tested. For a compound that was tested in more than one experiment, the result shown represents the mean value.

full length MALT1 = molecular target: T1, full length MALT1 (Homo sapiens, UniProt Q9UDY8); test: MALT1 biochemical assay (fluorogenic peptide substrate cleavage); settings: full length MALT1, 15 nM enzyme, 30 μM peptide substrate, 30 min pre-incubation, 60 min reaction; mean if tested more than once
T1 construct: measuring enzymatic activity of full length MALT1 at varying concentrations of compound
T1 sequence (Q9UDY8 1-824): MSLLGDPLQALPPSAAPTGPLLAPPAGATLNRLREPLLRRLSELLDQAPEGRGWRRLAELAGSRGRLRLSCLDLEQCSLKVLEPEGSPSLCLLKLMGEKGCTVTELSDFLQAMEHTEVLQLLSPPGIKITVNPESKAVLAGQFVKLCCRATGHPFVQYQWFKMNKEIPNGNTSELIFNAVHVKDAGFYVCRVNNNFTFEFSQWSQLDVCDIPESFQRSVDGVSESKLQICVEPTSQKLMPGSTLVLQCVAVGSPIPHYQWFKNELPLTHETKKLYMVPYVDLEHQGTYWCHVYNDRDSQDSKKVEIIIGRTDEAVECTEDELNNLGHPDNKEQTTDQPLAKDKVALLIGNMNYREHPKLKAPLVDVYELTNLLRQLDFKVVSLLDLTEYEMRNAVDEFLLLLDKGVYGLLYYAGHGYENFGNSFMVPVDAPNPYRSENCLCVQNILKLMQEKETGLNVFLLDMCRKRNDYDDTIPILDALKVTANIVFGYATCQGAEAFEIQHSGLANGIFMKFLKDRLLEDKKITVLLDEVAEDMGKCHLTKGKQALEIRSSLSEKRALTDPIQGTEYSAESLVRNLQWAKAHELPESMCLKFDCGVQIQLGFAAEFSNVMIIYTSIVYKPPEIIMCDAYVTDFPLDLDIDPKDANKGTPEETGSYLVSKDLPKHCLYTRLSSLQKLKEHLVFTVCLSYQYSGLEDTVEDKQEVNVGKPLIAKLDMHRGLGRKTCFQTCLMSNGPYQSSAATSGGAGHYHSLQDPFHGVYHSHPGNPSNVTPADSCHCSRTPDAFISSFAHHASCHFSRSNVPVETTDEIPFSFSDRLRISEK
Description: Inhibitor potency was evaluated by measuring enzymatic activity of full length MALT1 at varying concentrations of compound. The enzymatic assay consists of a single substrate reaction that monitors the release of a fluorescent dye upon cleavage of the peptide substrate. […] The assay buffer consists of 50 mM Hepes, pH 7.5, 0.8 M sodium citrate, 1 mM DTT, 0.004% tween-20, and 0.005% bovine serum albumin (BSA). […] The reaction was quenched after 60 minutes with the addition of iodoacetate at a final concentration of 10 mM. Total fluorescence was measured using an Envision (PerkinElmer) with fluorescence excitation at 485 nm and emission at 520 nm.
The reaction was initiated with the addition of 10 μL of peptide substrate. […] IC50 values were calculated by fitting the concentration-response curves to a four-parameter logistic equation in GraphPad Prism.
“N/A” indicates not tested.

## (1r,4S)—N—((S)-1-(4-((4-cyclopropyl-1,5-naphthyridin-3-yl)amino)phenyl)-2,2,2-trifluoroethyl)-N-methyl-4-(1H-tetrazol-5-yl)cyclohexane-1-carboxamide [Compound 3.1]
Jurkat IL-2
  IC50: 0.1 to 1 µM
Full length MALT1
  IC50: > 1 µM
